Laboratory results reported in patent US8937091B2 (Japan Science and Technology Agency, priority 2009, dated 2015).

Legend:
[1] = system: SOCE (store operated calcium entry) in CHO cells; assay: Assay of SOCE (store operated calcium entry)-inhibiting action; type: cell-based, Chinese hamster; conditions: CHO cells, thapsigargin; for inhibition at 10 µM / inhibition at 30 µM / inhibition at 100 µM: Cricetulus griseus, CHO, read-out: SOCE level (percentage of inhibition)
Summary of the method: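 CHO cells in calcium-free BSS received compound, then 1 μM thapsigargin 2 min later to deplete stores; after 9 min, 2 mM calcium chloride (final) added. Percent inhibition of the rise in intracellular calcium determined at various compound concentrations.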

[2] = system: IICR (IP3 induced calcium release) in CHO cells; assay: Assay of IICR (IP3 induced calcium release)-inhibiting action; type: cell-based, Chinese hamster; conditions: CHO cells, 10 μM ATP; for inhibition at 10 µM / inhibition at 30 µM / inhibition at 100 µM: Cricetulus griseus, CHO, read-out: IICR level (percentage of inhibition)
Summary of the method: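 Inhibition (%) of the intracellular calcium increase triggered by 10 μM ATP, measured in CHO cells in BSS with calcium. Compound given 1 min after the buffer exchange and 2 min before ATP; values reported per compound concentration.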

Row | SMILES | inhibition at 10 µM ([1]; test compound 10 μmol) [%] | inhibition at 30 µM ([1]; test compound 30 μmol) [%] | inhibition at 100 µM ([1]; test compound 100 μmol) [%] | inhibition at 10 µM ([2]; test compound 10 μmol) [%] | inhibition at 30 µM ([2]; test compound 30 μmol) [%] | inhibition at 100 µM ([2]; test compound 100 μmol) [%] | SOCE level (percentage of inhibition) ([1]; test compound 10 μmol) [%] | SOCE level (percentage of inhibition) ([1]; test compound 30 μmol) [%] | SOCE level (percentage of inhibition) ([1]; test compound 100 μmol) [%] | IICR level (percentage of inhibition) ([2]; test compound 10 μmol) [%] | IICR level (percentage of inhibition) ([2]; test compound 30 μmol) [%] | IICR level (percentage of inhibition) ([2]; test compound 100 μmol) [%]
1 | CC(C)(C)N(CCC(=O)c1ccc2c(c1)OCCO2)Cc1ccccc1 [Example 317, 2-(N-benzyl-t-butyl)aminoethyl-5,6-ethylenedioxy-2-phenylketone] | 10 | 10 | 30 | 90 | 95 | 100 | – | – | – | – | – | –
2 | Cc1ccc(C(=O)CCN(Cc2ccccc2)C(C)C)s1 [Example 318, 2-(N-benzylisopropyl)aminoethyl-5-methyl-2-thienylketone] | 10 | 20 | 40 | 10 | 60 | 80 | – | – | – | – | – | –
3 | CCN(CCC(=O)c1ccc(C)s1)Cc1ccccc1 [Example 319, 2-(N-benzylethyl)aminoethyl-5-methyl-2-thienylketone] | 0 | 10 | 20 | 20 | 10 | 70 | – | – | – | – | – | –
4 | O=C(CCN(CCO)CCO)c1ccc(I)s1 [Example 320] | 20 | 40 | 50 | 0 | 0 | 70 | – | – | – | – | – | –
5 | Cc1csc(C(=O)CCN(Cc2ccccc2)C(C)C)c1 [Example 321, 2-(N-benzylisopropyl)aminoethyl-4-methyl-2-thienylketone] | 0 | 0 | 0 | 20 | 70 | 100 | – | – | – | – | – | –
6 | Cc1csc(C(=O)CCN(Cc2ccccc2)Cc2ccccc2)c1 [Example 322, 2-(N-dibenzyl)aminoethyl-4-methyl-2-thienylketone] | 0 | 10 | 20 | 10 | 20 | 30 | – | – | – | – | – | –
7 | Cc1csc(C(=O)CCN(CCO)Cc2ccccc2)c1 [Example 323, 2-(N-benzylhydroxyethyl)aminoethyl-4-methyl-2-thienylketone] | 0 | 0 | 30 | 30 | 50 | 30 | – | – | – | – | – | –
8 | CC(C)(C)N(CCC(=O)c1ccc(Br)cc1)Cc1ccccc1 [Example 324, 2-(N-benzyl-t-butyl)aminoethyl-4-bromophenylketone] | 20 | 20 | 20 | 50 | 40 | 40 | – | – | – | – | – | –
9 | O=C(CCN(Cc1ccccc1)Cc1ccccc1)c1ccc(Br)s1 [Example 325, 2-(N-dibenzyl)aminoethyl-5-bromo-2-thienylketone] | 0 | 20 | 40 | 20 | 20 | 50 | – | – | – | – | – | –
10 | CN(CCC(=O)c1ccc(Br)s1)Cc1ccccc1 [Example 326, 2-(N-benzylmethyl)aminoethyl-5-bromo-2-thienylketone] | 10 | 30 | 60 | 40 | 10 | 40 | – | – | – | – | – | –
11 | O=C(CCN(CCO)Cc1ccccc1)c1ccc(Br)s1 [Example 327, 2-(N-benzylhydroxyethyl)aminoethyl-5-bromo-2-thienylketone] | 20 | 20 | 30 | 70 | 10 | 40 | – | – | – | – | – | –
12 | CN(CCO)CCC(=O)c1ccc(Br)s1 [Example 328, 2-(N-hydroxyethylmethyl)aminoethyl-5-bromo-2-thienylketone] | 10 | 10 | 0 | 0 | 10 | 80 | – | – | – | – | – | –
13 | CC(C)N(CCO)CCC(=O)c1ccc(Br)s1 [Example 329, 2-(N-hydroxyethylisopropyl)aminoethyl-5-bromo-2-thienylketone] | 20 | 20 | 10 | 0 | 10 | 50 | – | – | – | – | – | –
14 | O=C(CCN(CCO)CCO)c1ccc(Br)s1 [Example 330, 2-(N-bishydroxyethyl)aminoethyl-5-bromo-2-thienylketone] | 10 | 10 | 20 | 30 | 40 | 50 | – | – | – | – | – | –
15 | CCN(CCO)CCC(=O)c1ccc(Br)s1 [Example 331, 2-(N-2-hydroxyethylethyl)aminoethyl-5-bromo-2-thienylketone] | 0 | 10 | 20 | 0 | 10 | 70 | – | – | – | – | – | –
16 | CC(C)(C)N(CCO)CCC(=O)c1ccc(Br)s1 [Example 332, 2-(N-hydroxyethyl-t-butyl)aminoethyl-5-bromo-2-thienylketone] | – | – | – | – | – | – | 0 | 10 | 20 | 0 | 10 | 50
17 | O=C(CCN1CCCC1CO)c1ccc(Br)s1 (stereo not drawn) [Example 333, 2-(2-hydroxymethylpyrrolidinyl)aminoethyl-5-bromo-2-thienylketone] | 20 | 30 | 20 | 0 | 30 | 50 | – | – | – | – | – | –
18 | NCCN(CCO)CCC(=O)c1ccc(Br)s1 [Example 334, 2-(N-2-hydroxyethyl-N-2-aminoethyl)aminoethyl-5-bromo-2-thienylketone] | 30 | 30 | 40 | 20 | 0 | 60 | – | – | – | – | – | –
19 | O=C(CCNCCS)c1ccc(Br)s1 [Example 335, 2-(N-mercaptoethyl)aminoethyl-5-bromo-2-thienylketone] | 20 | 30 | 50 | 10 | 50 | 70 | – | – | – | – | – | –
20 | O=C(CCNc1ccccc1O)c1ccc(Br)s1 [Example 336, 2-(N-hydroxyphenyl)aminoethyl-5-bromo-2-thienylketone] | 10 | 0 | 0 | 20 | 10 | 60 | – | – | – | – | – | –
21 | CCCCN(CCC(=O)c1ccc(Br)s1)c1ccccc1 [Example 337, 2-(N-phenyl-N-n-butyl)aminoethyl-5-bromo-2-thienylketone] | 20 | 30 | 40 | 50 | 20 | 0 | – | – | – | – | – | –
22 | CCCCN(CCCC)CCC(=O)c1ccc(Br)s1 [Example 338, 2-(N,N-di-n-butyl)aminoethyl-5-bromo-2-thienylketone] | 0 | 0 | 24 | 50 | 50 | 60 | – | – | – | – | – | –
23 | CCC(C)N(CCC(=O)c1ccc(Br)s1)C(C)CC (stereo not drawn) [Example 339, 2-(N,N-di-sec-butyl)aminoethyl-5-bromo-2-thienylketone] | 0 | 8 | 61 | 50 | 80 | 60 | – | – | – | – | – | –
24 | O=C(CCNC(CO)c1ccccc1)c1ccc(Br)s1 (stereo not drawn) [Example 342, 2-(N-1-phenyl-2-hydroxyethyl)aminoethyl-5-bromo-2-thienylketone] | 0 | 0 | 34 | 0 | 20 | 40 | – | – | – | – | – | –
25 | NCC(O)CNCCC(=O)c1ccc(Br)s1 (stereo not drawn) [Example 343, 2-(N-2-hydroxy-3-aminopropyl)aminoethyl-5-bromo-2-thienylketone] | 0 | 0 | 26 | 50 | 70 | 80 | – | – | – | – | – | –
26 | NCCCCN(CCCN)CCC(=O)c1ccc(Br)s1 [Example 344, 2-(N-4-aminobutyl-N-3-aminopropyl)aminoethyl-5-bromo-2-thienylketone] | 0 | 2 | 6 | 10 | 40 | 30 | – | – | – | – | – | –
